Reference: patent US20070128217A1 (priority 2003, published 2007)

What was measured:
[1] = tested on: control sera (pooled serum of ten healthy LUMC hospital workers; commercial negative donor pooled serum from the Dutch bloodbank); assay type: binding, human; parameters: Binding of Control serum LUMC to linear peptides / Binding of Control serum Blood-bank to linear peptides / Binding of Control serum LUMC to looped peptides / Binding of Control Serum Blood-Bank to Looped peptides / Binding of Control serum LUMC to linear peptides of the protein M of SARS-CoV Urbani / Binding of Control serum Blood-bank to linear peptides of the protein M of SARS-CoV Urbani / Binding of Control serum LUMC to looped peptides of the protein M of SARS-CoV Urbani / Binding of Control Serum Blood-Bank to Looped peptides of the protein M of SARS-CoV Urbani: unit not given here
[2] = tested on: antibodies in sera from SARS patients (sera 1a, 1b, 2, 6, 37, 62, London, SARS-yellow, SARS-green); assay type: binding, human; parameters: Binding of serum 6 to linear peptides of protein X1 of SARS-CoV Urbani / Binding of serum 37 to linear peptides of protein X1 of SARS-CoV Urbani / Binding of serum 6 to looped/cyclic peptide (PEPSCAN-ELISA) / Binding of serum 37 to looped/cyclic peptide (PEPSCAN-ELISA) / Binding of serum 37 to looped/cyclic peptides of protein X1 of SARS-CoV Urbani / Binding of serum 6 to linear peptides of protein X2 / Binding of serum 37 to linear peptides of protein X2 / Binding of serum 37 to looped/cyclic peptides of protein X2 of SARS-CoV Urbani / Binding of serum 6 to linear peptides of protein M of SARS-CoV Urbani / Binding of serum 37 to linear peptides of protein M of SARS-CoV Urbani / Binding of serum 6 to looped/cyclic peptides of protein M of SARS-CoV Urbani / Binding of serum 37 to looped/cyclic peptides of protein M of SARS-CoV Urbani / Binding of serum 6 to linear peptides of protein X3 of SARS-CoV Urbani / Binding of serum 37 to linear peptides of protein X3 of SARS-CoV Urbani / Binding of serum 37 to looped/cyclic peptides of protein X3 of SARS-CoV Urbani / Binding of serum 6 to linear peptides of protein X4 of SARS-CoV Urbani / Binding of serum 37 to linear peptides of protein X4 of SARS-CoV Urbani / Binding of serum 37 to looped/cyclic peptides of protein X4 of SARS-CoV Urbani / Binding of serum 6 to linear peptides of protein X5 of SARS-CoV Urbani / Binding of serum 37 to linear peptides of protein X5 of SARS-CoV Urbani / Binding of serum 37 to looped/cyclic peptides of protein X5 of SARS-CoV Urbani / Binding of serum 6 to linear peptides of protein N of SARS-CoV Urbani / Binding of serum 37 to linear peptides of protein N of SARS-CoV Urbani / Binding of serum 6 to linear peptide (PEPSCAN-ELISA) / Binding of serum 1a to looped/cyclic peptides of protein N of SARS-CoV Urbani / Binding of serum 1b to looped/cyclic peptides of protein N of SARS-CoV Urbani / Binding of serum 2 to looped/cyclic peptides of protein N of SARS-CoV Urbani / Binding of serum 6 to looped/cyclic peptides of protein N of SARS-CoV Urbani / Binding of serum 37 to looped/cyclic peptides of protein N of SARS-CoV Urbani / Binding of serum 62 to looped/cyclic peptides of protein N of SARS-CoV Urbani / Binding of serum London to looped/cyclic peptides of protein N of SARS-CoV Urbani / Binding of serum SARS-green to looped/cyclic peptides of protein N of SARS-CoV Urbani: unit not given here
[3] = tested on: rabbit serum obtained by immunizing a rabbit with the SARS-CoV strain Frankfurt 1; assay type: binding; parameters: Binding of a rabbit serum to linear peptides / Binding of a rabbit serum to looped peptides / Rabbit serum linear peptides / Rabbit serum looped peptides / Binding of a rabbit serum to linear peptides of protein N of SARS-CoV Urbani (Rabbit serum linear peptides) / Binding of a rabbit serum to looped/cyclic peptides of protein N of SARS-CoV Urbani (Rabbit serum looped peptides): unit not given here

Sequence: FHRWHTMVQTCTPNV
- Binding of Control Serum Blood-Bank to Looped peptides [1]: 0.4
- Binding of Control serum Blood-bank to linear peptides [1]: 0.7
- Binding of Control serum LUMC to linear peptides [1]: 0.5
- Binding of Control serum LUMC to looped peptides [1]: 0.5
- Binding of serum 1a to linear peptides of protein X5 of SARS-CoV Urbani [2]: 0.8
- Binding of serum 1a to looped/cyclic peptides of protein X5 of SARS-CoV Urbani [2]: 0.7
- Binding of serum 1b to linear peptides of protein X5 of SARS-CoV Urbani [2]: 0.7
- Binding of serum 1b to looped/cyclic peptides of protein X5 of SARS-CoV Urbani [2]: 0.6
- Binding of serum 2 to linear peptides of protein X5 of SARS-CoV Urbani [2]: 0.9
- Binding of serum 2 to looped/cyclic peptides of protein X5 of SARS-CoV Urbani [2]: 0.6
- Binding of serum 6 to linear peptides of protein X5 of SARS-CoV Urbani [2]: 0.5
- Binding of serum 6 to looped/cyclic peptides of protein X5 of SARS-CoV Urbani [2]: 0.3
- Binding of serum 37 to linear peptides of protein X5 of SARS-CoV Urbani [2]: 0.7
- Binding of serum 37 to looped/cyclic peptides of protein X5 of SARS-CoV Urbani [2]: 0.5
- Binding of serum 62 to linear peptides of protein X5 of SARS-CoV Urbani [2]: 0.7
- Binding of serum 62 to looped/cyclic peptides of protein X5 of SARS-CoV Urbani [2]: 0.4
- Binding of serum London to linear peptides of protein X5 of SARS-CoV Urbani [2]: 0.7
- Binding of serum London to looped/cyclic peptides of protein X5 of SARS-CoV Urbani [2]: 0.2
- Binding of serum SARS-green to linear peptides of protein X5 of SARS-CoV Urbani [2]: 0.5
- Binding of serum SARS-green to looped/cyclic peptides of protein X5 of SARS-CoV Urbani [2]: 0.5
- Binding of serum SARS-yellow to linear peptides of protein X5 of SARS-CoV Urbani [2]: 0.4
- Binding of serum SARS-yellow to looped/cyclic peptides of protein X5 of SARS-CoV Urbani [2]: 0.4
- Rabbit serum linear peptides [3]: 0.8
- Rabbit serum looped peptides [3]: 0.4

Sequence: LALYKGFQFICNLLL
- Binding of Control Serum Blood-Bank to Looped peptides [1]: 0.6
- Binding of Control serum Blood-bank to linear peptides [1]: 0.6
- Binding of Control serum LUMC to linear peptides [1]: 0.5
- Binding of Control serum LUMC to looped peptides [1]: 0.6
- Binding of serum 1a to linear peptides of protein X1 of SARS-CoV Urbani [2]: 0.7
- Binding of serum 1a to looped/cyclic peptide (PEPSCAN-ELISA) [2]: 0.5
- Binding of serum 1b to linear peptides of protein X1 of SARS-CoV Urbani [2]: 0.5
- Binding of serum 1b to looped/cyclic peptide (PEPSCAN-ELISA) [2]: 0.3
- Binding of serum 2 to linear peptides of protein X1 of SARS-CoV Urbani [2]: 0.5
- Binding of serum 2 to looped/cyclic peptide (PEPSCAN-ELISA) [2]: 0.4
- Binding of serum 6 to linear peptides of protein X1 of SARS-CoV Urbani [2]: 0.4
- Binding of serum 6 to looped/cyclic peptide (PEPSCAN-ELISA) [2]: 1.4
- Binding of serum 37 to linear peptides of protein X1 of SARS-CoV Urbani [2]: 0.5
- Binding of serum 37 to looped/cyclic peptide (PEPSCAN-ELISA) [2]: 0.5
- Binding of serum 62 to linear peptides of protein X1 of SARS-CoV Urbani [2]: 0.6
- Binding of serum 62 to looped/cyclic peptide (PEPSCAN-ELISA) [2]: 0.5
- Binding of serum London to linear peptides of protein X1 of SARS-CoV Urbani [2]: 0.2
- Binding of serum London to looped/cyclic peptide (PEPSCAN-ELISA) [2]: 1.4
- Binding of serum SARS-green to linear peptides of protein X1 of SARS-CoV Urbani [2]: 0.2
- Binding of serum SARS-green to looped/cyclic peptide (PEPSCAN-ELISA) [2]: 0.2
- Binding of serum SARS-yellow to linear peptides of protein X1 of SARS-CoV Urbani [2]: 0.5
- Binding of serum SARS-yellow to looped/cyclic peptide (PEPSCAN-ELISA) [2]: 0.5
- Binding of a rabbit serum to linear peptides [3]: 0.2
- Binding of a rabbit serum to looped peptides [3]: 0.6

Sequence: SLLKVTAFQHQNSKK
- Binding of Control Serum Blood-Bank to Looped peptides [1]: 0.4
- Binding of Control serum Blood-bank to linear peptides [1]: 0.2
- Binding of Control serum LUMC to linear peptides [1]: 0.0
- Binding of Control serum LUMC to looped peptides [1]: 0.3
- Binding of serum 1a to linear peptides of protein X2 [2]: 0.4
- Binding of serum 1a to looped/cyclic peptides of protein X2 of SARS-CoV Urbani [2]: 0.3
- Binding of serum 1b to linear peptides of protein X2 [2]: 0.0
- Binding of serum 1b to looped/cyclic peptides of protein X2 of SARS-CoV Urbani [2]: 0.2
- Binding of serum 2 to linear peptides of protein X2 [2]: 0.1
- Binding of serum 2 to looped/cyclic peptides of protein X2 of SARS-CoV Urbani [2]: 0.1
- Binding of serum 6 to linear peptides of protein X2 [2]: 0.0
- Binding of serum 6 to looped/cyclic peptides of protein X2 of SARS-CoV Urbani [2]: 0.1
- Binding of serum 37 to linear peptides of protein X2 [2]: 0.4
- Binding of serum 37 to looped/cyclic peptides of protein X2 of SARS-CoV Urbani [2]: 0.2
- Binding of serum 62 to linear peptides of protein X2 [2]: 0.1
- Binding of serum 62 to looped/cyclic peptides of protein X2 of SARS-CoV Urbani [2]: 0.4
- Binding of serum London to linear peptides of protein X2 [2]: 0.1
- Binding of serum London to looped/cyclic peptides of protein X2 of SARS-CoV Urbani [2]: 0.1
- Binding of serum SARS-green to linear peptides of protein X2 [2]: 0.0
- Binding of serum SARS-green to looped/cyclic peptides of protein X2 of SARS-CoV Urbani [2]: 0.1
- Binding of serum SARS-yellow to linear peptides of protein X2 [2]: 0.0
- Binding of serum SARS-yellow to looped/cyclic peptides of protein X2 of SARS-CoV Urbani [2]: 0.2
- Binding of a rabbit serum to linear peptides [3]: 0.1
- Binding of a rabbit serum to looped peptides [3]: 0.3
